Experimental data from patent US8178659B2, “Targets for the identification of antibiotics that are not susceptible to antibiotic resistance” (priority 2005, dated 2012).
In brackets after ≈: the same amount, converted by molar mass.

Tested on: E. coli DH5 cells
Assay: Minimum inhibitory concentration (MIC) of chloramphenicol in the specialized ribosome (CAT reporter) system
Type: cell-based
Conditions: Escherichia coli, DH5CELLS
From the text: To examine the role of potential interactions within the 530 loop (FIG. 3.1) nucleotides involved in the proposed interactions were randomly mutated using PCR and cloned into pRNA16ST, a derivative of pRNA122 (Lee et al., 1996; Lee et al., 1997). pRNA 16ST contains only the 16 S rRNA from the rrnB operon rather then the entire operon. […] In this specialized in vivo system, the chloramphenicol acetyltransferase (CAT) reporter message is translated exclusively by plasmid-derived ribosomes that cannot translate normal cellular messages (Lee et al., 1996; Lee et al., 1997). Thus, the minimal inhibitory concentration (MIC) of chloramphenicol for each mutant is correlated to the level of function of the plasmid-derived ribosomes. This allows for the selection of functional mutants on chloramphenicol containing media. Survivors were then sequenced and assayed for function by determining the MIC for each mutant.
Minimum inhibitory concentration (MIC). MICs were determined by standard methods in microtiter plates. Overnight cultures grown in LB-Ap100 were diluted and induced in the same medium containing 1 mM IPTG for two to three hours at 37° C. Approximately 10^4 induced cells were then added to wells containing LB-Ap100+IPTG (1 mM) and chloramphenicol at increasing concentrations.

O=C(N[C@H](CO)[C@H](O)c1ccc([N+](=O)[O-])cc1)C(Cl)Cl [chloramphenicol] was tested, and the MIC (cells expressing wild-type ribosomes in the system (pRNA123)) was 700 µg/mL (≈ 2170 µM) and the MIC (uninduced wild-type plasmid (pRNA228) as well as a lethal clone) was 15 µg/mL (≈ 46.4 µM).
